US8148391B2 (Cephalon, Inc., priority 2006, dated 2012)
Read-outs that look alike come from different tables or passages of the source.

Experiments:
[1] = biological target: T1, c-Met (cytoplasmic domain) (Homo sapiens, UniProt P08581); test: c-Met Kinase Assay (same methods as for ALK, with modifications); assay type: biochemical
T1 construct: 10 ng/mL c-Met (cytoplasmic domain, Invitrogen Corporation #PV3143); purchased Invitrogen Corporation PV3143
Method in brief: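 Steps: coat wells with PLC-γ (10 μg/mL, Tris-buffered saline); add 10 ng/mL c-Met cytoplasmic domain to initiate; incubate 15 min, 37° C; detect phosphoproduct via Eu-N1 PT66 antibody.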

[2] = biological target: T2, baculovirus-expressed ALK (Homo sapiens, UniProt Q9UM73); test: ALK Kinase Assay (ELISA-type, time-resolved fluorescence); assay type: biochemical
T2 construct: host or cells: baculovirus expression system
Method in brief: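 Wells were coated with phospholipase C-γ at 10 μg/mL in Tris-buffered saline. Adding 30 ng/ml enzyme started the reaction, which ran at 37° C for 15 minutes before Eu-N1 PT66 antibody detection. Percent inhibition versus log10 concentration gave IC50 by variable-slope fit.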

[3] = 1 μM ATP (Km level), read-out: cMet Activity (c-Met Kinase Inhibition, IC50)
[4] = 1 μM ATP (Km level), read-out: ALK Activity (ALK Kinase Inhibition, IC50)
[5] = c-Met kinase inhibition, 1 μM ATP, read-out: cMet Activity
[6] = ALK kinase inhibition, 1 μM ATP, read-out: ALK Activity
[7] = 1 μM ATP (Km level), 10 ng/mL c-Met, read-out: cMet Activity (c-Met kinase inhibition, IC50 class)
[8] = 1 μM ATP (Km level), 30 ng/ml ALK, 37° C., 15 minutes, read-out: ALK Activity (ALK kinase inhibition, IC50 class)
[9] = c-Met kinase inhibition, 1 μM ATP (Km level), read-out: cMet Activity
[10] = ALK kinase inhibition, 1 μM ATP (Km level), read-out: ALK Activity

T2 sequence (Q9UM73 19-1620): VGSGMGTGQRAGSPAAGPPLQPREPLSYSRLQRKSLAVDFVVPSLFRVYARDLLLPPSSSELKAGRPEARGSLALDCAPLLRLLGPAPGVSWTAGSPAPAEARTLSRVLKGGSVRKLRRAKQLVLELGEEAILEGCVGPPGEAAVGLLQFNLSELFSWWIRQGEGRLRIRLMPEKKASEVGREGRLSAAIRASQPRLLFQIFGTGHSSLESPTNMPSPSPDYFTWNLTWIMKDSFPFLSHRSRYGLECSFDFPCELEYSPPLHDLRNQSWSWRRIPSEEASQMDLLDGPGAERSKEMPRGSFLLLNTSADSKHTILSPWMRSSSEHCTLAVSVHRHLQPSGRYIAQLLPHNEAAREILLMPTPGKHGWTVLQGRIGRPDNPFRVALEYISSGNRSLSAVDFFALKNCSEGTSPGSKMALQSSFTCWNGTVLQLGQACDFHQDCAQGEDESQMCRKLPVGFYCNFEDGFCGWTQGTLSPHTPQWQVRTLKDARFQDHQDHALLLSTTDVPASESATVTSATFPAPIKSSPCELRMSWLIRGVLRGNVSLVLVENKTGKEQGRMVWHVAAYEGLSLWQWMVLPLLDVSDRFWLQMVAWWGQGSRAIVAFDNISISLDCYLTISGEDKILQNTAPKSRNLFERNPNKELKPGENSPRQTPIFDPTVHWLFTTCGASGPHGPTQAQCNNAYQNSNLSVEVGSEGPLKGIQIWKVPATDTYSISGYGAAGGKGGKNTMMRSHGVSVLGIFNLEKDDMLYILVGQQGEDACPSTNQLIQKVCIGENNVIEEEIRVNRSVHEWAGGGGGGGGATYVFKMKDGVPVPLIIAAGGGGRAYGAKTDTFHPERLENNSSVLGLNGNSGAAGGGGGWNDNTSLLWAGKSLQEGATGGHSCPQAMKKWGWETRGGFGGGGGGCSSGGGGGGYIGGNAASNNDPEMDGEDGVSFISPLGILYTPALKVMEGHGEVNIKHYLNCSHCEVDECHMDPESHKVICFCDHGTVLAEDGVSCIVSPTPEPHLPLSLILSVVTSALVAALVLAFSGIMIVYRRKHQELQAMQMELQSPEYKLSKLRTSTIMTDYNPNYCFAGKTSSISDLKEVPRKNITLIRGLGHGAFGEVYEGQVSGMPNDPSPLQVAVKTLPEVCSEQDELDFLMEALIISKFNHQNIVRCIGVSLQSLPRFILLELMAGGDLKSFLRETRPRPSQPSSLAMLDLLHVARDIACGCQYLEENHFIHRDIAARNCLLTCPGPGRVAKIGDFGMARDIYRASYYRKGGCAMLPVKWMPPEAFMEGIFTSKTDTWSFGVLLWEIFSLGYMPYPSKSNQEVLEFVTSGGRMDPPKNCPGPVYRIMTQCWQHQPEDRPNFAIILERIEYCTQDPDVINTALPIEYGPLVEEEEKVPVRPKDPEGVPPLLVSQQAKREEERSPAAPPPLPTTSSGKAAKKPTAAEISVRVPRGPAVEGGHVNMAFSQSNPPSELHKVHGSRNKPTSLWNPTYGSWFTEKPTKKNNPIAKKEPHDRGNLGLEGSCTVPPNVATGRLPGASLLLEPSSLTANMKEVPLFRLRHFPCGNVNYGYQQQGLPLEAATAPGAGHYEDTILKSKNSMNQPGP
T1 sequence (P08581 956-1390 limits assumed): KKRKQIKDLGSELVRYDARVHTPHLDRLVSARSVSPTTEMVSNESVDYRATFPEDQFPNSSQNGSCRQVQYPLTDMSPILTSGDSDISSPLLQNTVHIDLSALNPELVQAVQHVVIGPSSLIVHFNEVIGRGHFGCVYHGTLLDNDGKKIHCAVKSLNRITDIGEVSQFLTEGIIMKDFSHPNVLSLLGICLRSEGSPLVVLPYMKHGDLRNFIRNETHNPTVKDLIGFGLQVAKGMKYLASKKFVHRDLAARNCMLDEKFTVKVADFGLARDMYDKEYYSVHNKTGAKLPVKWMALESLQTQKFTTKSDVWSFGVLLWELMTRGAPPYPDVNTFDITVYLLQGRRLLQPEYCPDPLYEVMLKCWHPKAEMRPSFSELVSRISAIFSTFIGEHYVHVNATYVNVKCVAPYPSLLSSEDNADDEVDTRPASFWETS

| Compound | IC50 [1, 5] [µM] | IC50 [2, 6] [µM] | IC50 [1, 7] [µM] | IC50 [2, 8] [µM] | other results |
| --- | --- | --- | --- | --- | --- |
| CCN1C(=O)CCC(C)(C)c2ccc(Nc3ncc(Cl)c(Nc4ccc(N5CCOCC5)cc4S(=O)(=O)N(C)C)n3)cc21 [Example 851, 2-[5-Chloro-2-(1-ethyl-5,5-dimethyl-2-oxo-2,3,4,5-tetrahydro-1H-benzo[b]azepin-8-ylamino)-pyrimidin-4-ylamino]-N,N-dimethyl-5-morpholin-4-yl-benzenesulfonamide] | – | – | – | – | IC50 [1, 3]: 1 to 10 µM; IC50 [2, 4]: < 0.1 µM |
| CC(C)[C@H](Nc1nc(Nc2ccc3c(c2)CC(=O)N(C)CC3)ncc1Cl)C(N)=O [Example 1823, (S)-2-[5-Chloro-2-(3-methyl-4-oxo-2,3,4,5-tetrahydro-1H-benzo[d]azepin-7-ylamino)-pyrimidin-4-ylamino]-3-methyl-butyramide] | > 10 | 1 to 10 | – | – | – |
| CNC(=O)c1ncccc1Nc1nc(Nc2ccc3c(c2)CC(=O)N(C)CC3)ncc1Cl [Example 1820, 3-[5-Chloro-2-(3-methyl-4-oxo-2,3,4,5-tetrahydro-1H-benzo[d]azepin-7-ylamino)-pyrimidin-4-ylamino]-pyridine-2-carboxylic acid methylamide] | 1 to 10 | < 0.1 | – | – | – |
| COc1cc2c(cc1Nc1ncc(Cl)c(N[C@H]3[C@@H](C(N)=O)[C@@H]4C=C[C@H]3C4)n1)CCC(NCCO)CC2 (single isomer, unassigned) [Example 1096] | – | – | > 10 | < 0.1 | – |
| (1S,2S,4R)-3-{5-Chloro-2-[3-(2-dimethylamino-acetylamino)-1-ethyl-6-methoxy-2-oxo-2,3,4,5-tetrahydro-1H-benzo[b]azepin-7-ylamino]-pyrimidin-4-ylamino}-bicyclo[2.2.1]hept-5-ene-2-carboxylic acid amide [Example 1353] | – | – | > 10 | < 0.1 | – |
| COCCN1CCc2ccc(Nc3ncc(Cl)c(Nc4ccccc4C(=O)NCC4CC4)n3)cc2CC1 [Example 1421, 2-{5-Chloro-2-[3-(2-methoxy-ethyl)-2,3,4,5-tetrahydro-1H-benzo[d]azepin-7-ylamino]-pyrimidin-4-ylamino}-N-cyclopropylmethyl-benzamide] | – | – | 1 to 10 | < 0.1 | – |
| COc1cc2c(cc1Nc1ncc(Cl)c(Nc3ccccc3S(C)(=O)=O)n1)CCN(CC(N)=O)CC2 [Example 1143, 2-{7-[5-Chloro-4-(2-methanesulfonyl-phenylamino)-pyrimidin-2-ylamino]-8-methoxy-1,2,4,5-tetrahydro-benzo[d]azepin-3-yl}-acetamide] | – | – | > 10 | < 0.1 | – |
| CNC(=O)c1cccc(Nc2nc(Nc3ccc4c(c3)CCCC(=O)N4C)ncc2Cl)c1 [Example 668, 3-[5-Chloro-2-(1-methyl-2-oxo-2,3,4,5-tetrahydro-1H-benzo[b]azepin-7-ylamino)-pyrimidin-4-ylamino]-N-methyl-benzamide] | – | – | – | – | IC50 [1, 3]: 1 to 10 µM; IC50 [2, 4]: 0.1 to 1 µM |
| NC(=O)C1C2C=CC(C2)C1Nc1nc(Nc2ccc3c(c2)CCC(N2CCOCC2)CC3)ncc1Cl (stereo not drawn) [Example 867, 3-[5-Chloro-2-(7-morpholin-4-yl-6,7,8,9-tetrahydro-5H-benzocyclohepten-2-ylamino)-pyrimidin-4-ylamino]-bicyclo[2.2.1]hept-5-ene-2-carboxylic acid amide] | – | – | – | – | IC50 [1, 3]: 0.1 to 1 µM; IC50 [2, 4]: < 0.1 µM |
| CC1(C)CCCN(C(=O)CN2CCCC2)c2cc(Nc3ncc(Cl)c(N[C@H]4[C@@H](C(N)=O)[C@@H]5C=C[C@H]4C5)n3)ccc21 [Example 1607, (1S,2S,3R,4R)-3-{5-Chloro-2-[5,5-dimethyl-1-(2-pyrrolidin-1-yl-acetyl)-2,3,4,5-tetrahydro-1H-benzo[b]azepin-8-ylamino]-pyrimidin-4-ylamino}-bicyclo[2.2.1]hept-5-ene-2-carboxylic acid amide] | 0.1 to 1 | < 0.1 | – | – | – |
| CNC(=O)c1ccccc1Nc1nc(Nc2ccc3c(c2)C2CCC3CN(CCOC)C2)ncc1Cl (stereo not drawn) [Example 282, 2-{5-Chloro-2-[10-(2-methoxy-ethyl)-10-aza-tricyclo[6.3.2.0*2,7*]trideca-2,4,6-trien-4-ylamino]-pyrimidin-4-ylamino}-N-methyl-benzamide] | – | – | – | – | IC50 [1, 9]: < 0.1 µM; IC50 [2, 10]: < 0.1 µM |
| COc1cc2c(cc1Nc1ncc(Cl)c(Nc3ccccc3S(=O)(=O)C(C)C)n1)CCN(CC(=O)N1CCN(C)CC1)CC2 [Example 1541, 2-(7-{5-Chloro-4-[2-(propane-2-sulfonyl)-phenylamino]-pyrimidin-2-ylamino}-8-methoxy-1,2,4,5-tetrahydro-3-benzazepin-3-yl)-1-(4-methyl-piperazin-1-yl)-ethanone] | > 10 | < 0.1 | – | – | – |
| CCN1CCN(CC)c2cc(Nc3nc(Nc4cc5c(cc4OC)CCN(CC(=O)N(C)C)CC5)ncc3Cl)ccc2C1 [Example 723] | – | – | – | – | IC50 [1, 3]: > 10 µM; IC50 [2, 4]: < 0.1 µM |
| CNC(=O)c1cccc(Cl)c1Nc1nc(Nc2ccc3c(c2)CCC(N2CCC(N4CCN(C)CC4)CC2)CC3)ncc1Cl (stereo not drawn) [Example 1488, 3-Chloro-2-(5-chloro-2-{7-[4-(4-methyl-piperazin-1-yl)-piperidin-1-yl]-6,7,8,9-tetrahydro-5H-benzocyclohepten-2-ylamino}-pyrimidin-4-ylamino)-N-methyl-benzamide] | < 0.1 | 0.1 to 1 | – | – | – |
| COc1cccc(C(=O)NCC#N)c1Nc1nc(Nc2ccc3c(c2)C(C)(C)CCC(=O)N3)ncc1Cl [Example 1064, 2-[5-Chloro-2-(5,5-dimethyl-2-oxo-2,3,4,5-tetrahydro-1H-benzo[b]azepin-7-ylamino)-pyrimidin-4-ylamino]-N-cyanomethyl-3-methoxy-benzamide] | – | – | 1 to 10 | 1 to 10 | – |
| Cc1cccc(C(=O)NCC#N)c1Nc1nc(Nc2ccc3c(c2)C(C)(C)CCC(=O)N3)ncc1Cl [Example 1038, 2-[5-Chloro-2-(5,5-dimethyl-2-oxo-2,3,4,5-tetrahydro-1H-benzo[b]azepin-7-ylamino)-pyrimidin-4-ylamino]-N-cyanomethyl-3-methyl-benzamide] | – | – | 0.1 to 1 | < 0.1 | – |
| COc1cc2c(cc1Nc1ncc(Cl)c(Nc3ccccc3S(=O)(=O)N(C)C)n1)CCN(CC(C)(C)O)CC2 [Example 1563, 2-{5-Chloro-2-[3-(2-hydroxy-2-methyl-propyl)-8-methoxy-2,3,4,5-tetrahydro-1H-3-benzazepin-7-ylamino]-pyrimidin-4-ylamino}-N,N-dimethyl-benzenesulfonamide] | 1 to 10 | < 0.1 | – | – | – |
| CCCCNC(=O)c1ccccc1Nc1nc(Nc2ccc3c(c2)CCCC(=O)N3)ncc1Cl [Example 1029, N-Butyl-2-[5-chloro-2-(2-oxo-2,3,4,5-tetrahydro-1H-benzo[b]azepin-7-ylamino)-pyrimidin-4-ylamino]-benzamide] | – | – | 1 to 10 | 0.1 to 1 | – |
| NC(=O)[C@@H]1[C@H](Nc2nc(Nc3ccc4c(c3)CCC(NCC(F)F)CC4)ncc2Cl)[C@H]2C=C[C@@H]1C2 (stereo partly drawn) [Example 665, (1S,2S,3R,4R)-3-{5-Chloro-2-[7-(2,2-difluoro-ethylamino)-6,7,8,9-tetrahydro-5H-benzocyclohepten-2-ylamino]-pyrimidin-4-ylamino}-bicyclo[2.2.1]hept-5-ene-2-carboxylic acid amide] | – | – | – | – | IC50 [1, 3]: 0.1 to 1 µM; IC50 [2, 4]: < 0.1 µM |
| CNC(=O)c1ccccc1Nc1nc(Nc2ccc3c(c2)CCOCC3)ncc1Cl [Example 51, 2-[5-Chloro-2-(5,6,8,9-tetrahydro-7-oxa-benzocyclohepten-2-ylamino)-pyrimidin-4-ylamino]-N-methyl-benzamide] | – | – | – | – | IC50 [1, 9]: < 0.1 µM; IC50 [2, 10]: < 0.1 µM |
| COc1cc2c(cc1Nc1ncc(F)c(Nc3ccc(N4CCOCC4)cc3OC)n1)CCN(CC(=O)OC(C)C)CC2 [Example 811, {7-[5-Fluoro-4-(2-methoxy-4-morpholin-4-yl-phenylamino)-pyrimidin-2-ylamino]-8-methoxy-1,2,4,5-tetrahydro-benzo[d]azepin-3-yl}-acetic acid isopropyl ester] | – | – | – | – | IC50 [1, 3]: > 10 µM; IC50 [2, 4]: 0.1 to 1 µM |
| CCN1CC(=O)Nc2cc(Nc3ncc(Cl)c(Nc4ccc(OC)cc4-n4cccn4)n3)c(OC)cc2C1 [Example 1662, 8-[5-Chloro-4-(4-methoxy-2-pyrazol-1-yl-phenylamino)-pyrimidin-2-ylamino]-4-ethyl-7-methoxy-1,3,4,5-tetrahydro-benzo[e][1,4]diazepin-2-one] | > 10 | < 0.1 | – | – | – |
| CN1C(=O)OCCc2cc(Nc3ncc(Cl)c(Nc4cccc5c4OC(F)(F)O5)n3)ccc21 [Example 1768, 2-[5-Chloro-4-(2,2-difluoro-benzo[1,3]dioxol-4-ylamino)-pyrimidin-2-ylamino]-5-methyl-8,9-dihydro-5H-7-oxa-5-aza-benzocyclohepten-6-one] | 1 to 10 | 0.1 to 1 | – | – | – |
| COc1c(Nc2ncc(Cl)c(Nc3ccccc3S(=O)(=O)N(C)C)n2)ccc2c1CC(N1CCOCC1)CCC2 (racemic) [Example 1210, 2-[5-Chloro-2-(1-methoxy-8-morpholin-4-yl-6,7,8,9-tetrahydro-5H-benzocyclohepten-2-ylamino)-pyrimidin-4-ylamino]-N,N-dimethyl-benzenesulfonamide] | – | – | 1 to 10 | < 0.1 | – |
